Experiment [1] has as its target T1, Lipoxygenase (15-LOX, soybean) (Glycine max, UniProt P08170).
T1 sequence (P08170 1-839): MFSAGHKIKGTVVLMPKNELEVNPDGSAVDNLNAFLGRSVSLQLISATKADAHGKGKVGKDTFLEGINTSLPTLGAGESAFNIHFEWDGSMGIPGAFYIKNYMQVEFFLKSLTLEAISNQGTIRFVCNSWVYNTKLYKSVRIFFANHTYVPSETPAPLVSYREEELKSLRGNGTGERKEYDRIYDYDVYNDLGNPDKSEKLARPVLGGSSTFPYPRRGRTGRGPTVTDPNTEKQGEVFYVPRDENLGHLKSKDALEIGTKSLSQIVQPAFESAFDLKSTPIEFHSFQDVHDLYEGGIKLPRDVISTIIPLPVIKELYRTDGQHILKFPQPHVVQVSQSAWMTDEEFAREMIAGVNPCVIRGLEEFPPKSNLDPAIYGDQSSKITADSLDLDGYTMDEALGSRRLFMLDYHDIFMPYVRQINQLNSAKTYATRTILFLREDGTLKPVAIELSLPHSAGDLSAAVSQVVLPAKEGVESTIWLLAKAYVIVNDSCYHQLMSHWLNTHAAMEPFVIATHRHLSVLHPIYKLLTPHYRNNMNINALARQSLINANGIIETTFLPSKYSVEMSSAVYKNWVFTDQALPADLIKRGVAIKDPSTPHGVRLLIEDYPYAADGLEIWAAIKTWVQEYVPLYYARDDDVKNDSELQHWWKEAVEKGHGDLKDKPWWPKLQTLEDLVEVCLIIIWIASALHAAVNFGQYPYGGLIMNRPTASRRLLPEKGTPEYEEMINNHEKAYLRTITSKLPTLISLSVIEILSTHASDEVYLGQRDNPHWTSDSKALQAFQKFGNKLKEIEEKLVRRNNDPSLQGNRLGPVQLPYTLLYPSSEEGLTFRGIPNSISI
Nature of the experiment: Lipoxygenase inhibitory activity (Cayman kit). Format: biochemical. Particulars: compounds at 100 µg/mL. On the procedure:
Lipoxygenase (15-LOX, soybean) inhibitory activity was evaluated using a commercial assay kit (Cayman Chemicals Co; Item No. 760700) according to the manufacturer’s instructions. Solutions of test samples (10 μL) in methanol were added into 96-wells plates together with assay buffer, and the enzyme was added. The reaction was initiated by adding 10 μL of arachidonic acid to the wells and the plate was placed on a shaker for 15 min. Chromogen solution (100 μL) was added to the wells, the plate was then placed on a shaker for 10 min and absorbance was read at 495–500 nm. […] Results are expressed as a percentage relative to the activity without the test compound.

Experiment [2] is described as follows: Metal chelating capacity (ferrozine). Particulars: EDTA equivalents per gram of extract.
A short description of experiment [3]: Total peroxyl radical-trapping potential (TRAP) assay. As to conditions: metabolites and standards: activity of a 1 µM-solution relative to 1 µM Trolox. Here is the method: The experimental protocol of the TRAP assay was previously reported. Briefly, AAPH (150 mM) was dissolved in 10 mL of Tris HCl buffer solution (100 mM, pH 7.4), and the solution was kept at 37 °C for 30 min to initiate thermal radical formation. A luminol stock solution (1 mM) was prepared in 50 mL Tris HCl buffer and kept in darkness at 4 °C. A 78 µM, working luminol solution was prepared before each assay by dilution in Tris HCl buffer. Samples for assays were prepared as follows: 2 mL of AAPH (final concentration, 100 mM) and 500 μL of luminol solution (final concentration, 13 µM) were introduced in a 3 mL tube; then, 500 μL of pure acetone (blank) or solution of the tested oil or extract in acetone (0.005–0.2 mg/mL) or DMSO (test compounds: 5–300 µM) were added and the mixture vortexed for 5 s before luminescence analysis. A calibration curve was obtained in the same conditions using the antioxidant Trolox (1–40 μM) as a standard.
Quantification of radical scavenging capacity was performed by integrating the area under the curve (AUC) for the sample and blank solutions, and the results are expressed as Trolox Equivalents (TE) using Equation (2):TE = ([Trolox] × ΔAUC Sample)/([Sample] × ΔAUC Trolox)(2) where ΔAUC Sample (Trolox) = AUC Blank − AUC Sample (Trolox).

The next experiment can be described thus: DPPH assay. Particulars: metabolites and standards, in dichloromethane. Here is the method:
Experiments were performed according to previous procedures. Aliquots of dichloromethane solutions of oil or fractions (50–500 mg/mL) or test compounds (final concentration 0.01–2 mM) were added to 200 µL of a freshly prepared DPPH solution (75 mg/L), and the final volume was adjusted to 300 µL with dichloromethane to obtain a final DPPH concentration of 0.13 mM. The absorbance was read at 517 nm on a microplate reader 3 min after sample addition. Experiments were performed in triplicate and averaged. The DPPH inhibition was calculated as follows:Inhibition (%) = [100 × (A0 − A)/A0](1)
On the technique in general: Loss of DPPH colour is used to gauge radical scavenging.

Experiment [4] in a line: Superoxide radical quenching (allopurinol-XO generator, lucigenin luminescence). Particulars: glycine buffer/acetone. Here is the method:
All reactants were dissolved in glycine buffer, and the reaction was carried out at 25 °C [30]. […] The test tube was inserted in the luminometer, and reaction was initiated by adding a XO suspension (2 µL, 11 mU/mL). Luminescence was monitored for a total period of 7 min and O2^•− quenching was calculated by subtracting areas under the curve against blank. Each measurement was performed in triplicate.

Experiment [5] addresses T2, xanthine oxidase (XO; from buttermilk) (Bos taurus, UniProt P80457).
T2 construct: purchased Sigma-Aldrich; host or cells: buttermilk (natural source)
Nature of the experiment: biochemical. As to conditions: 30 min, 37 °C; read-out: XO Inhibition IC50 (converted). On the procedure:
All reactants were dissolved in PBS (0.2 M, pH 7.5). The experiments were performed at 37 °C in 96-wells microplates with a final volume of 250 µL/well [30]. […] To all wells, 25 µL of EDTA (0.1 mM in PBS) and 25 µL of xanthine solution (500 µM) were then added, and the reaction was started by adding 50 µL of XO suspension (23.32 mU/mL), while PBS (50 µL) was added in blank samples. The final concentrations were: xanthine, 50 µM; EDTA, 10 µM and XO, 4.7 mU/mL. The wells were incubated for 30 min at 37 °C, and uric acid production was determined by subtracting the absorbance at 290–295 nm of the sample against that of the blank. Each measurement was performed in triplicate.

In another experiment the target is T3, proteinase K (PTA) (Parengyodontium album, UniProt P06873).
T3 construct: purchased Sigma-Aldrich
T3 sequence (P06873 106-384): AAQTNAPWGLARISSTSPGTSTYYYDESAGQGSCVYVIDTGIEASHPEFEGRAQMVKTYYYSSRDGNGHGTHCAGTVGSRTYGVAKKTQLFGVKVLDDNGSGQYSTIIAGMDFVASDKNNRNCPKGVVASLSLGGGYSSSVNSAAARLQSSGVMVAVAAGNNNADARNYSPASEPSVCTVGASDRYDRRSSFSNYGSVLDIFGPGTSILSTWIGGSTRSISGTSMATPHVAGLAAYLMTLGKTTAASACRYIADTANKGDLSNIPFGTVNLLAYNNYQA
Nature of the experiment: Proteinase inhibitory activity. Format: biochemical. As to conditions: compounds at 150 µg/mL. On the procedure:
Anti-inflammatory properties of the extracts were evaluated by their proteinase and lipoxygenase inhibitory activities as described. Briefly, PTA (0.06 mg) was dissolved in 2 mL of Tris HCl buffer (20 mM, pH 7.4) containing a suspension of each extract (100–600 µg/mL). The mixture was incubated at 37 °C for 5 min, and 1 mL of 4% BSA was added. Incubation was prolonged for 20 min, and afterwards 2 mL of 5% trichloroacetic acid was added to the mixture. After centrifugation (3000 rpm, 10 min, 4 °C) the absorbance was read at 210 nm against buffer as blank, and the percentage of proteinase inhibition activity was calculated. Experiments were performed in triplicate and averaged. The anti-inflammatory drug diclofenac (100–300 µg/mL) was used as a standard for comparison.

Data on four molecules can be found in PMC7910904, “Improving the Antioxidant Properties of Calophyllum inophyllum Seed Oil from French Polynesia: Development and Biological Applications of Resinous Ethanol-Soluble Extracts” (Antioxidants, 2021).

T2 sequence (P80457 whole entry): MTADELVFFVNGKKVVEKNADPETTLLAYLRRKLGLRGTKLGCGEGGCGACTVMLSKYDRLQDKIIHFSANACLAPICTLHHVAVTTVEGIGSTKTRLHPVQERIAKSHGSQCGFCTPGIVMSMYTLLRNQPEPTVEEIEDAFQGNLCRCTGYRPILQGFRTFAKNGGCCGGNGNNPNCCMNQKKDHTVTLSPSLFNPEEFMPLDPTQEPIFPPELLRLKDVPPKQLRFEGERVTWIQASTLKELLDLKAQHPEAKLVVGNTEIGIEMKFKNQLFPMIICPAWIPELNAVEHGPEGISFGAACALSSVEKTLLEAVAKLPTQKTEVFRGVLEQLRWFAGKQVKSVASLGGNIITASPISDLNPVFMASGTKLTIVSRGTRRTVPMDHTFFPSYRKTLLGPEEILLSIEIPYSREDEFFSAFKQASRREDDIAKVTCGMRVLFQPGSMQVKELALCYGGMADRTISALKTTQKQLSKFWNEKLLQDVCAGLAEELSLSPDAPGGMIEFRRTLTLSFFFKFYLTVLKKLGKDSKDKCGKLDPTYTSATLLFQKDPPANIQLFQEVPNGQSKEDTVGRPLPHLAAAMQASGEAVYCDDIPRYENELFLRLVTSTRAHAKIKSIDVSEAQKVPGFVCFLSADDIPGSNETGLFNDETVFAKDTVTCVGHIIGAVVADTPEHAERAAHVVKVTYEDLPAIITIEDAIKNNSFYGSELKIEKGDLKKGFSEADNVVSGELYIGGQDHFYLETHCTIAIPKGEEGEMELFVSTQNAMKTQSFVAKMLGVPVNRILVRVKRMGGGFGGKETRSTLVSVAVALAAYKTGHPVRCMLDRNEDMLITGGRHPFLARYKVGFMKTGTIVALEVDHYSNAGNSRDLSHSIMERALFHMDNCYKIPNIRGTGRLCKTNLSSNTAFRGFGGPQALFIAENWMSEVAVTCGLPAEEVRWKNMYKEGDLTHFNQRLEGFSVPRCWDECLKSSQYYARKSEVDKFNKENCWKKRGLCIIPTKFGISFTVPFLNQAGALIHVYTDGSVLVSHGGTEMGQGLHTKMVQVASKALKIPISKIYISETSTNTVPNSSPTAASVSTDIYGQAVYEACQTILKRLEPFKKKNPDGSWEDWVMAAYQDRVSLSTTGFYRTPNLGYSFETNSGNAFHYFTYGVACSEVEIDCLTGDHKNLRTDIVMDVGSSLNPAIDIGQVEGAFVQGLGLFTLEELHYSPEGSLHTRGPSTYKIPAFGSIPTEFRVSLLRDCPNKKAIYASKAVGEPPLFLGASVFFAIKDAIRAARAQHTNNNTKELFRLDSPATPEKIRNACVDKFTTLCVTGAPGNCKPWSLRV

On to `O=c1c(O)c(-c2ccc(O)c(O)c2)oc2cc(O)cc(O)c12` [Quercetin], for which the inhibition at 100 µg/mL in experiment [1] was 83 ± 2%. Moreover, the MCC in experiment [2] was 105 ± 3 µmol EDTAE/g. Besides, the “TRAP TE” value in experiment [3] was 6.31 ± 0.24 TE. Also, the IC50 in the experiment “DPPH assay” was found to be 14.1 ± 0.21 µM. For the same molecule, the “O2•− Quenching IC50” value in experiment [4] stood at 0.083 ± 0.06 µg/mL.

On to `O=C(O)/C=C/c1ccc(O)c(O)c1` [Caffeic acid], for which the inhibition at 100 µg/mL in experiment [1] is 45 ± 1%. For the same molecule, the MCC in experiment [2] came out at 125± 5 µmol EDTAE/g. Also, in experiment [3], the “TRAP TE” value was 2.98 ± 0.14 TE. The IC50 in “DPPH assay” is 18.1 ± 0.21 µM; in experiment [5], 219 µM. Also, the “O2•− Quenching IC50” value in experiment [4] came out at 0.013 ± 0.06 µg/mL.

On to `O=C(O)c1cc(O)c(O)c(O)c1` [Gallic acid], for which testing at 100 µg/mL in experiment [1] gave an inhibition of 28 ± 2%. Moreover, the MCC in experiment [2] turned out to be 90 ± 3 µmol EDTAE/g. Moreover, the “O2•− Quenching IC50” value in experiment [4] is given as 0.022 ± 0.01 µg/mL. The concentration for half-maximal inhibition (IC50) in experiment [5] was 242 µM.

For the molecule `O=C(O)Cc1ccccc1Nc1c(Cl)cccc1Cl` [Diclofenac], the inhibition at 150 µg/mL on proteinase K (PTA) was found to be 64 ± 2%.

As usually defined, the inhibition is the drop in the measured response relative to a control, in per cent. By IC50 is commonly meant the concentration that gives 50% inhibition.
